This is an account of results in patent US8901118B2, “Compounds and methods for kinase modulation, and indications therefor” (Plexxikon Inc., priority 2010, dated 2014).

Some results are limits rather than exact numbers.

In data set [1] the target is CYP3A4(BQ) (Homo sapiens, UniProt P08684). The data set can be described thus: CYP3A4(BQ) inhibition. The settings on record: CYP3A4, substrate BQ; read-out: Cyp IC50 3A4(BQ). It counts as in vitro ADME. In outline:
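Inhibition of human CYP3A4 (BQ substrate) was measured by fluorescence, since blocking metabolism of a known substrate lowers the fluorescent product signal. Compounds dissolved in DMSO at 100 mM were diluted into acetonitrile and then into NADPH regeneration cofactor mix, serially diluted 1:1 across 10 points, and preincubated in 384 well plates for 10 minutes at 37° C.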

Data set [2] in a line: Relative solubility by turbidity in aqueous buffers (pH 1.5, 4.5, 6.8, 7.4). It counts as physicochemical. The settings on record: for turbidity threshold (L, M, H) 1.4: pH 1.5 (SGF); for turbidity threshold (L, M, H) 4.5: pH 4.5 (SIF); for turbidity threshold (L, M, H) 6.8: pH 6.8 (SIF); for turbidity threshold (L, M, H) 7.4: pH 7.4 (HEPES). In outline:
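Twofold DMSO dilutions of a 25 mM stock were spiked into SGF (0.5M NaCl, pH 1.5), SIF (0.05M NaH2PO4, pH 4.5 and 6.8) or HEPES buffer (10 mM HEPES, 150 mM NaCl, pH 7.4). Absorbance was read at 490, 535 and 650 nm. The endpoint is the concentration crossing O.D. 0.01, averaged across wavelengths.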

Data set [3] has as its target c-Kit kinase (Homo sapiens, UniProt P10721). The data set can be described thus: c-Kit kinase biochemical activity assay (AlphaScreen, biotin-(E4Y)10 phosphorylation). As to conditions: 100 μM ATP; read-out: Biochemical Inhibition IC50 Kit. In outline:
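Phosphorylation of 30 nM biotin-(E4Y)10 by c-Kit (0.75 ng per reaction) with 100 µM ATP in HEPES pH 7.5 buffer with Mg2+/Mn2+, 5% DMSO, 1 h at room temperature; 8-point 1:2 compound dilutions. AlphaScreen detection with streptavidin donor and PY20 acceptor beads after EDTA stop. IC50 from signal versus concentration.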

Chain of c-Kit kinase (P10721 26-976): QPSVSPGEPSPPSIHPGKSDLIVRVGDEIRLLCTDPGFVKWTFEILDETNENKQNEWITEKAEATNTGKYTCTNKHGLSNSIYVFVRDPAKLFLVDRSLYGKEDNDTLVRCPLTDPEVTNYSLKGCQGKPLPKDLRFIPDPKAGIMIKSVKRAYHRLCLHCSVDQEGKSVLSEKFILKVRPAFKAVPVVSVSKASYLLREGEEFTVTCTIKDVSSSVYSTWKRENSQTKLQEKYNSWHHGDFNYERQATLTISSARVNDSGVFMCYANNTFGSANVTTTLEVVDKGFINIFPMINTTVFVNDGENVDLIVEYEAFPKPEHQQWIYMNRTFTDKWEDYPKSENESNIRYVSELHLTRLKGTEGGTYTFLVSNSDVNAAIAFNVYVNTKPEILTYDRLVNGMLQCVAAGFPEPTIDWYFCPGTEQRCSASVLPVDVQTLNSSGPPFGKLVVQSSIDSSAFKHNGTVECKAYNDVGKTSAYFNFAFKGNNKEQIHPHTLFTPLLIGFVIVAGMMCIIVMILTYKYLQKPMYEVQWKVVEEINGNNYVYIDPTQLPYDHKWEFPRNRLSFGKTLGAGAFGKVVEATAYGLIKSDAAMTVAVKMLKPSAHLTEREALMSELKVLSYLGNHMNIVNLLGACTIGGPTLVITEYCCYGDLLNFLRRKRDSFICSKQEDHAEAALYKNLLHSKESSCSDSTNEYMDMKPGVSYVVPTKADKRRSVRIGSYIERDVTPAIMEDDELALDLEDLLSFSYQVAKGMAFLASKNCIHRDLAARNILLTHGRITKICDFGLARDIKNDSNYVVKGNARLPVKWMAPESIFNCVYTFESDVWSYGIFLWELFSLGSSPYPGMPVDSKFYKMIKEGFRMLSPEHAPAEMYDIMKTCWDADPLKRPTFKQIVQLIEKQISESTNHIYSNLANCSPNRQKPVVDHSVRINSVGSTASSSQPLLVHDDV
Chain of CYP3A4(BQ) (P08684 whole entry): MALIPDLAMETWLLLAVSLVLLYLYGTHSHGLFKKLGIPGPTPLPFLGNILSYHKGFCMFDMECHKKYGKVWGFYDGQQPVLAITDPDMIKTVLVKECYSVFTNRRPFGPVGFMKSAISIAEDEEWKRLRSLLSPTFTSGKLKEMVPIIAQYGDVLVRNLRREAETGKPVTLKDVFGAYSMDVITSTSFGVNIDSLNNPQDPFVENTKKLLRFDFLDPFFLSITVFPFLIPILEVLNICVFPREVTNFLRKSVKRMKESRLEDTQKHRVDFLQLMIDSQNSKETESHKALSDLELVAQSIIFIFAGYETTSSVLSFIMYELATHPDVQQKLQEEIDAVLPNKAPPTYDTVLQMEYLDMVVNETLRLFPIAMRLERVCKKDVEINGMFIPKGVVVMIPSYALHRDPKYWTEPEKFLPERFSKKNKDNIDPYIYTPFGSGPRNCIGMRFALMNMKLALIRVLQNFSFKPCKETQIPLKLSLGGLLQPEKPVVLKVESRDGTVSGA

Take `CCc1ccc(Nc2ccc(C(=O)c3c[nH]c4ncnc(NC5CCC5)c34)c(F)n2)cn1` [Compound P-4095, [4-(cyclobutylamino)-7H-pyrrolo[2,3-d]pyrimidin-5-yl]-[6-[(6-ethyl-3-pyridyl)amino]-2-fluoro-3-pyridyl]methanone]: in data set [1], the 50% inhibitory concentration (IC50) was over 10 µM. In data set [2], the “turbidity threshold (L, M, H) 1.4” value is given as “M (moderate solubility if the threshold concentration is 31.3 μM to 250 μM)”; the “turbidity threshold (L, M, H) 4.5” value is “M (moderate solubility if the threshold concentration is 31.3 μM to 250 μM)”; the “turbidity threshold (L, M, H) 6.8” value was “M (moderate solubility if the threshold concentration is 31.3 μM to 250 μM)”; the “turbidity threshold (L, M, H) 7.4” value is on record as “M (moderate solubility if the threshold concentration is 31.3 μM to 250 μM)”. In addition, in data set [3], the half-inhibitory concentration (IC50) was under 100 nM.

As for `CCc1ccc(Nc2ccc(C(=O)c3c[nH]c4ncnc(NC5CCC(F)(F)CC5)c34)c(F)n2)cn1` [Compound P-4096, [4-[(4,4-difluorocyclohexyl)amino]-7H-pyrrolo[2,3-d]pyrimidin-5-yl]-[6-[(6-ethyl-3-pyridyl)amino]-2-fluoro-3-pyridyl]methanone], the IC50 in data set [1] lay within 5 to 10 µM. Also, in data set [2], the “turbidity threshold (L, M, H) 1.4” value was “H (high solubility if the threshold concentration is >250 μm)”; the “turbidity threshold (L, M, H) 4.5” value is recorded as “L (low solubility if the threshold concentration is <31.3 μM)”; the “turbidity threshold (L, M, H) 6.8” value was “L (low solubility if the threshold concentration is <31.3 μM)”; the “turbidity threshold (L, M, H) 7.4” value is listed as “L (low solubility if the threshold concentration is <31.3 μM)”. Further, the half-inhibitory concentration (IC50) in data set [3] was under 1000 nM.

On to `CCc1ccc(Nc2ccc(C(=O)c3c[nH]c4ncnc(N[C@@H](C)c5ccc(F)cc5)c34)c(F)n2)cn1` [Compound P-4097, [6-[(6-ethyl-3-pyridyl)amino]-2-fluoro-3-pyridyl]-[4-[[(1S)-1-(4-fluorophenyl)ethyl]amino]-7H-pyrrolo[2,3-d]pyrimidin-5-yl]methanone], for which, in data set [1], the IC50 is over 10 µM. For the same compound, in data set [2], the “turbidity threshold (L, M, H) 1.4” value is given as “M (moderate solubility if the threshold concentration is 31.3 μM to 250 μM)”; the “turbidity threshold (L, M, H) 4.5” value is recorded as “L (low solubility if the threshold concentration is <31.3 μM)”; the “turbidity threshold (L, M, H) 6.8” value is reported as “L (low solubility if the threshold concentration is <31.3 μM)”; the “turbidity threshold (L, M, H) 7.4” value is “L (low solubility if the threshold concentration is <31.3 μM)”. For the same compound, the 50% inhibitory concentration (IC50) in data set [3] was under 1000 nM.

As to `CCc1ccc(Nc2ccc(C(=O)c3c[nH]c4ncnc(NCCCOC)c34)c(F)n2)cn1` [Compound P-4098, [6-[(6-ethyl-3-pyridyl)amino]-2-fluoro-3-pyridyl]-[4-(3-methoxypropylamino)-7H-pyrrolo[2,3-d]pyrimidin-5-yl]methanone], the IC50 in data set [1] was over 10 µM. Besides, in data set [2], the “turbidity threshold (L, M, H) 1.4” value is reported as “H (high solubility if the threshold concentration is >250 μm)”; the “turbidity threshold (L, M, H) 4.5” value is reported as “L (low solubility if the threshold concentration is <31.3 μM)”; the “turbidity threshold (L, M, H) 6.8” value is recorded as “M (moderate solubility if the threshold concentration is 31.3 μM to 250 μM)”; the “turbidity threshold (L, M, H) 7.4” value is “M (moderate solubility if the threshold concentration is 31.3 μM to 250 μM)”. Besides, the half-inhibitory concentration (IC50) in data set [3] is under 100 nM.

Take `CCc1ccc(Nc2ccc(C(=O)c3c[nH]c4ncnc(NC5CCCC5)c34)c(F)n2)cn1` [Compound P-4099, [4-(cyclopentylamino)-7H-pyrrolo[2,3-d]pyrimidin-5-yl]-[6-[(6-ethyl-3-pyridyl)amino]-2-fluoro-3-pyridyl]methanone]: the IC50 in data set [1] was under 5 µM. For the same compound, in data set [2], the “turbidity threshold (L, M, H) 1.4” value is “H (high solubility if the threshold concentration is >250 μm)”; the “turbidity threshold (L, M, H) 4.5” value is recorded as “L (low solubility if the threshold concentration is <31.3 μM)”; the “turbidity threshold (L, M, H) 6.8” value is “L (low solubility if the threshold concentration is <31.3 μM)”; the “turbidity threshold (L, M, H) 7.4” value is “L (low solubility if the threshold concentration is <31.3 μM)”. Also, the half-maximal inhibitory concentration (IC50) in data set [3] was under 100 nM.

Regarding `CCCCNc1ncnc2[nH]cc(C(=O)c3ccc(Nc4ccc(CC)nc4)nc3F)c12` [Compound P-4100, [4-(butylamino)-7H-pyrrolo[2,3-d]pyrimidin-5-yl]-[6-[(6-ethyl-3-pyridyl)amino]-2-fluoro-3-pyridyl]methanone], in data set [1], the 50% inhibitory concentration (IC50) is over 10 µM. In addition, in data set [2], the “turbidity threshold (L, M, H) 1.4” value is reported as “H (high solubility if the threshold concentration is >250 μm)”; the “turbidity threshold (L, M, H) 4.5” value was “M (moderate solubility if the threshold concentration is 31.3 μM to 250 μM)”; the “turbidity threshold (L, M, H) 6.8” value is recorded as “M (moderate solubility if the threshold concentration is 31.3 μM to 250 μM)”; the “turbidity threshold (L, M, H) 7.4” value is given as “M (moderate solubility if the threshold concentration is 31.3 μM to 250 μM)”. For the same compound, in data set [3], the IC50 was under 100 nM.

For the compound `CC(C)Nc1ncnc2[nH]cc(C(=O)c3ccc(NC4CCCCC4)nc3F)c12` [Compound P-4101, [6-(cyclohexylamino)-2-fluoro-3-pyridyl]-[4-(isopropylamino)-7H-pyrrolo[2,3-d]pyrimidin-5-yl]methanone], in data set [1], the IC50 was over 10 µM. In addition, in data set [2], the “turbidity threshold (L, M, H) 1.4” value is recorded as “M (moderate solubility if the threshold concentration is 31.3 μM to 250 μM)”; the “turbidity threshold (L, M, H) 4.5” value is listed as “L (low solubility if the threshold concentration is <31.3 μM)”; the “turbidity threshold (L, M, H) 6.8” value was “L (low solubility if the threshold concentration is <31.3 μM)”; the “turbidity threshold (L, M, H) 7.4” value is “L (low solubility if the threshold concentration is <31.3 μM)”. Besides, in data set [3], the concentration for half-maximal inhibition (IC50) is under 1000 nM.

On to `CNc1ncnc2[nH]cc(C(=O)c3ccc(NC4CCCCC4)nc3F)c12` [Compound P-4102, [6-(cyclohexylamino)-2-fluoro-3-pyridyl]-[4-(methylamino)-7H-pyrrolo[2,3-d]pyrimidin-5-yl]methanone], for which, in data set [1], the half-inhibitory concentration (IC50) is over 10 µM. Moreover, in data set [2], the “turbidity threshold (L, M, H) 1.4” value was “H (high solubility if the threshold concentration is >250 μm)”; the “turbidity threshold (L, M, H) 4.5” value is listed as “M (moderate solubility if the threshold concentration is 31.3 μM to 250 μM)”; the “turbidity threshold (L, M, H) 6.8” value is “M (moderate solubility if the threshold concentration is 31.3 μM to 250 μM)”; the “turbidity threshold (L, M, H) 7.4” value is reported as “M (moderate solubility if the threshold concentration is 31.3 μM to 250 μM)”. Further, the IC50 in data set [3] was under 1000 nM.

Consider `COc1cncc(Nc2ccc(C(=O)c3c[nH]c4ncnc(NCC(F)(F)F)c34)c(F)n2)c1` [Compound P-4103, [2-fluoro-6-[(5-methoxy-3-pyridyl)amino]-3-pyridyl]-[4-(2,2,2-trifluoroethylamino)-7H-pyrrolo[2,3-d]pyrimidin-5-yl]methanone], for which the IC50 in data set [1] is over 10 µM. In addition, in data set [2], the “turbidity threshold (L, M, H) 1.4” value was “L (low solubility if the threshold concentration is <31.3 μM)”; the “turbidity threshold (L, M, H) 4.5” value was “M (moderate solubility if the threshold concentration is 31.3 μM to 250 μM)”; the “turbidity threshold (L, M, H) 6.8” value is listed as “M (moderate solubility if the threshold concentration is 31.3 μM to 250 μM)”; the “turbidity threshold (L, M, H) 7.4” value is on record as “M (moderate solubility if the threshold concentration is 31.3 μM to 250 μM)”. Besides, in data set [3], the IC50 is under 1000 nM.

In the case of `COc1cncc(Nc2ccc(C(=O)c3c[nH]c4ncnc(NC5CCCCC5)c34)c(F)n2)c1` [Compound P-4104, [4-(cyclohexylamino)-7H-pyrrolo[2,3-d]pyrimidin-5-yl]-[2-fluoro-6-[(5-methoxy-3-pyridyl)amino]-3-pyridyl]methanone], the half-maximal inhibitory concentration (IC50) in data set [1] was over 10 µM. Besides, in data set [2], the “turbidity threshold (L, M, H) 1.4” value is “M (moderate solubility if the threshold concentration is 31.3 μM to 250 μM)”; the “turbidity threshold (L, M, H) 4.5” value was “L (low solubility if the threshold concentration is <31.3 μM)”; the “turbidity threshold (L, M, H) 6.8” value was “L (low solubility if the threshold concentration is <31.3 μM)”; the “turbidity threshold (L, M, H) 7.4” value is on record as “L (low solubility if the threshold concentration is <31.3 μM)”. Moreover, the half-inhibitory concentration (IC50) in data set [3] is under 1000 nM.

For the compound `CCCNc1ncnc2[nH]cc(C(=O)c3ccc(Nc4cncc(OC)c4)nc3F)c12` [Compound P-4105, [2-fluoro-6-[(5-methoxy-3-pyridyl)amino]-3-pyridyl]-[4-(propylamino)-7H-pyrrolo[2,3-d]pyrimidin-5-yl]methanone], the IC50 in data set [1] was over 10 µM. In data set [2], the “turbidity threshold (L, M, H) 1.4” value was “M (moderate solubility if the threshold concentration is 31.3 μM to 250 μM)”; the “turbidity threshold (L, M, H) 4.5” value is reported as “M (moderate solubility if the threshold concentration is 31.3 μM to 250 μM)”; the “turbidity threshold (L, M, H) 6.8” value is given as “M (moderate solubility if the threshold concentration is 31.3 μM to 250 μM)”; the “turbidity threshold (L, M, H) 7.4” value is reported as “M (moderate solubility if the threshold concentration is 31.3 μM to 250 μM)”. For the same compound, the concentration for half-maximal inhibition (IC50) in data set [3] is over 1000 nM.
